{"source": "paper PMC11401973", "about": "“A novel small molecule ZYZ384 targeting SMYD3 for hepatocellular carcinoma via reducing H3K4 trimethylation of the Rac1 promoter” (MedComm, 2024)", "key": {"SMYD3-GST tag protein": {"biological_target": "T1, SMYD3-GST tag protein (Homo sapiens, UniProt Q9H7B4)", "T1 construct": "purchased BPS Bioscience", "T1 sequence (Q9H7B4 1-428)": "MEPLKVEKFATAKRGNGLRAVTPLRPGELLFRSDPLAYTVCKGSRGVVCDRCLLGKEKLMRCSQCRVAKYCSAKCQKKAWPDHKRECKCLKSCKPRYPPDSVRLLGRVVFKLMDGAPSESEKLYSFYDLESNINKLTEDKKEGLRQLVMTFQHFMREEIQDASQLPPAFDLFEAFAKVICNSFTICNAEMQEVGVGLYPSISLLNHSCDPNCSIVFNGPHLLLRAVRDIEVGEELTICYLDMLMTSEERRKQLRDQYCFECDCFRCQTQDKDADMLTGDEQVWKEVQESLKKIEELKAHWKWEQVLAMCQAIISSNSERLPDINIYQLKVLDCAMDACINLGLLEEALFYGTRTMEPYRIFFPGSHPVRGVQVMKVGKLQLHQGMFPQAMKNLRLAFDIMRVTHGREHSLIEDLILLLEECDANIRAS", "assay": "Biolayer interferometry (BLI) binding assay", "conditions": "steady-state analysis, read-out: equilibrium dissociation constant (K D)", "protocol": "Next, to test the binding affinity of novel small molecules to SMYD3, BLI analyses were performed to determine the binding affinity of the two series of novel small molecules targeting SMYD3. SMYD3‐glutathione S‐transferase (GST)‐tagged protein was immobilized onto GST biosensors and used to determine the binding affinity of all respective small molecules and labeled probes. The binding and dissociation curves were generated in real time by applying the SMYD3‐GST label proteins onto the biosensor surfaces, followed by monitoring small molecules interaction across several concentrations. […] SMI1 has been renamed ZYZ384 and further tested for anticancer activities using both in vitro and in vivo models.\nThe SMYD3‐GST tag protein (BPS Bioscience) was immobilized onto a GST biosensor (Fortebio). ZYZ384 was tested across the concentrations range of 6.25–200 µM. After baseline setup using Phosphate buffer saline (PBS), the biosensor tips were immersed in wells containing ZYZ384 continuous diluent for 180 s to combine, followed by a 180‐s dissociation step. They calculated K D value with a 1:1 model in data analysis software 9.0 (Fortebio)."}, "SMYD3 [1]": {"biological_target": "T2, SMYD3 (Homo sapiens, UniProt Q9H7B4)", "T2 construct": "purchased BPS Bioscience", "T2 sequence (Q9H7B4 1-428)": "T1 sequence (Q9H7B4 1-428)", "assay": "SMYD3 homogeneous assay kit (AlphaELISA)", "type": "biochemical", "conditions": "different concentrations, 3 h incubation", "protocol": "The homogeneous assay kit was used to evaluate ZYZ384 inhibition activity on SMYD3. As we know, SMYD3 can catalyze the di‐ and tri‐methylation status of lysine4 of histone H3. This protein is also reported to drive the methylation of a lysine residue present in the protein […] (MAP3K2). Therefore, a series of different concentrations of ZYZ384 were incubated with SMYD3, and the activity was determined using the kit.\nThe commercial SMYD3 homogenous assay kit is designed to detect SMYD3 activity for screening and analytical applications. The SMYD3 homogenous assay kit is available in a convenient AlphaELISA format with GST‐labeled SMYD3 substrate, primary antibody, methylation detection buffer, and purification of SMYD3 for 384 enzyme reactions. The key to the SMYD3 homogenous assay is a particular antibody that recognizes methylated substrates. Using the kit, methyltransferase can be detected in three simple steps on a microtitration plate. First, samples containing the SMYD3 enzyme and ZYZ384 in different dosages were incubated in substrates for 3 h. Next, the receptor bead and primary antibody are added, the donor bead is added, and the Alpha counts are recorded."}, "A549 cells": {"tested_on": "A549 cells", "assay": "MTT cell viability", "type": "cell-based", "conditions": "Homo sapiens, 24 h", "protocol": "(§1) The cytotoxicity of ZYZ384 was determined across several different cancer cell lines. 3‐(4,5‐Dimethylthiazol‐2‐yl)‐2,5‐diphenyltetrazolium bromide (MTT) assay was used to assess cell viability. […] The cancer cell lines tested include human liver carcinoma cell HepG2, adenocarcinoma human alveolar basal epithelial cell A549, human colon carcinoma cell HTC116, human breast adenocarcinoma cell MDA‐MB‐231, and human pancreatic adenocarcinoma cell Miapaca2. […] In addition, ZYZ384 had low toxicity when tested in normal liver cells (LO2; Figure 3H).\n(§2) Human HepG2, A549, HCT116, MDA‐MB‐231, and Miapaca2 cells were purchased from American Type Culture Collection (ATCC) and cultured in DMEM medium supplemented with 1% penicillin/streptomycin and 10% FBS at 37°C under 5% CO2 atmosphere and 95% air. Trypsin EDTA was used for cell passage.\n(§3) Cell viability was assessed in several cancer cell lines and determined using the MTT assay in a 96‐well plate format. In brief, cells from […] medium (1 × 10^4/well) were inoculated in 96‐well plates and treated with ZYZ384. After 24 h of treatment, cell viability was determined by adding 1 mg/mL MTT‐containing medium for 4 h, followed by […] Dimethyl sulfoxide (DMSO) to dissolve formazan. The absorbance at 570 nm was recorded using a microplate ultraviolet/visible (UV/VIS) spectrophotometer (Tecan)."}, "HCT116 cells": {"tested_on": "HCT116 cells", "assay": "MTT cell viability", "type": "cell-based", "conditions": "Homo sapiens, HCT-116, 24 h", "protocol": "as §1, §2, §3"}, "HepG2 cells": {"tested_on": "HepG2 cells", "assay": "MTT cell viability", "type": "cell-based", "conditions": "Homo sapiens, 24 h", "protocol": "as §1, §2, §3"}, "MDA-MB-231 cells": {"tested_on": "MDA-MB-231 cells", "assay": "MTT cell viability", "type": "cell-based", "conditions": "Homo sapiens; MDA-MB-231, MTT, 24 h", "protocol": "as §1, §2, §3"}, "Miapaca2 cells": {"tested_on": "Miapaca2 cells", "assay": "MTT cell viability", "type": "cell-based", "conditions": "Homo sapiens, MIA PaCa-2, 24 h", "protocol": "as §1, §2, §3"}, "Huh7 cells": {"tested_on": "Huh7 cells", "assay": "MTT cell viability", "type": "cell-based", "conditions": "Homo sapiens, Huh-7, 24 h"}, "LO2 cells": {"tested_on": "LO2 cells", "assay": "MTT cell viability, normal liver cells", "type": "cell-based, human", "protocol": "as §1, §3"}, "SMYD3 [2]": {"tested_on": "SMYD3", "assay": "SMYD3 overexpression by transfection in LO2 cells and ZYZ384 treatment", "type": "cell-based, human", "conditions": "LO2 transfected with SMYD3 OE plasmid, 24 h treatment", "protocol": "as §1\nSMYD3 overexpression (SMYD3 OE) plasmid (Sino Biological) was mixed with lipofectamine 2000 for plasmid transfection. After transfection for 6 h, cells were exposed to the indicated ZYZ384 treatments for another 24 h."}, "C57BL/6 mice": {"tested_on": "C57BL/6 mice", "assay": "Short-term toxicity study of C57BL/6 mice", "type": "in vivo", "conditions": "oral", "protocol": "The toxicity of ZYZ384 (Figure 4A) was determined using C57BL/6 mice in pilot studies to assess the safety and the maximum‐tolerable dose (MTD) determined (as shown in Figure 4B). No toxicity was reported in C57BL/6 mice orally administrated with 2 g/kg of ZYZ384 one time, and a survival rate of 100% was reached after 2 weeks of treatment. No abnormalities in food and water consumption are reported during this time, nor any unusual spontaneous activities; a reported […] for ZYZ384 >2 g/kg is noted for the current work.\nC57BL/6 mice were randomly divided into two groups (n = 10) to determine the short‐term toxicity of ZYZ384. Mice were given the maximum dose of 2 g/kg orally administered ZYZ384 once, while the control group was treated with the same volume of sterilized water. The health conditions of all mice were monitored for 2 weeks."}, "HepG2 tumors": {"tested_on": "HepG2 tumors", "assay": "HepG2 tumor-bearing nude mouse model (CDX)", "type": "in vivo, nude mice", "protocol": "The in vivo antitumor effect of ZYZ384 was assessed using a HepG2 tumor‐bearing nude mouse model (cell‐derived xenograft, CDX; Figure 4D).\nThe tumor‐bearing nude mice model was established by direct injection of hepG2 cells into the left armpit of nude mice. Animals were subsequently divided into five groups (n = 7). All compounds were applied via intragastric administration, and sorafenib was used as the positive control. Other groups, except the control group, were treated with different concentrations of ZYZ384. Body weight and tumor volume were monitored and recorded throughout the treatment period."}, "SMYD3 [3]": {"tested_on": "SMYD3", "assay": "SMYD3 expression in tumor tissue (Western blot)", "type": "in vivo, nude mice", "conditions": "ZYZ384 treatment groups versus control group", "protocol": "(§4) In order to explore the antitumor mechanism of ZYZ384, the inhibitory effect of ZYZ384 on SMYD3 was determined in tumor tissues. […] In parallel, the expression of H3K4me3 was also noted to decrease in a similar pattern to that of SMYD3 (Figure 5B). The tumor tissues from control and high‐dosage treatment group animals were isolated. Since SMYD3 can tri‐methylated H3K4, ChIP‐seq analysis was used. This method allowed for annotating H3K4me3 occupancy on genes (Figure 5C). Global H3K4me3 occupancy decreased near annotation genes' transcription start site (TSS; Figure 5D). H3K4me3 is often enriched at activated promoters near TSSs. When combined with Kyoto Encyclopedia of Genes and Genomes (KEGG) pathway enrichment analysis (Figure 5E) and Gene Ontology (GO) functional enrichment analysis (Figure 5F), attention focus on the AKT pathway, cell proliferation, and migration functions. Visualized reads and signal strength of H3K4me3 for the Rac1 gene at the promoter region decreased following treatment with ZYZ384 (Figure 5G). […]\n(§5) Isolated protein (30 µg) was obtained from tissues, separated on a sodium dodecyl sulfate‐polyacrylamide gel electrophoresis (SDS‐PAGE) gel, and transferred to a polyvinylidene fluoride membrane. […] The immunoreactive protein is visualized by enhanced chemiluminescence, and the signal intensity was detected and quantified using ImageJ."}, "H3K4me3": {"tested_on": "H3K4me3", "assay": "H3K4me3 expression in tumor tissue (Western blot)", "type": "in vivo, nude mice", "conditions": "ZYZ384 treatment groups versus control group", "protocol": "as §4, §5"}, "Water solubility": {"assay": "Water solubility", "type": "physicochemical", "source_text": "We were granted a Chinese patent (CN114246851A) to protect the structure and activity of ZYZ384, the effectiveness of ZYZ384 at high concentrations presents a challenge for future clinical use. […] Currently, we are trying to transform it into hydrochloride or culture cocrystallization to improve its solubility, bioavailability, and druggability. Drug resistance and combination therapy of ZYZ384 on other models will be gradually carried out in the follow‐up work. Although we developed a small molecule targeting SMYD3, we still need to figure out whether it is a selective inhibitor, and related research is to be continued."}}, "data": [{"smiles": "COc1ccc(/N=C2/c3ccccc3/C(=N/c3ccc(OC)cc3)C2(C)C)cc1", "note": "[ZYZ384, (1Z,3Z)-N1,N3-bis(4-methoxyphenyl)-2,2-dimethyl-1H-indene-1,3(2H)-diimine]", "values": [{"measurement": "Kd", "setting": "SMYD3-GST tag protein", "value": 78, "unit": "µM"}, {"measurement": "SMYD3 activity (alpha counts)", "setting": "SMYD3 [1]", "value": "inhibits SMYD3 in a concentration‐dependent manner"}, {"measurement": "IC50", "setting": "A549 cells", "value": 20.7, "unit": "µM"}, {"measurement": "IC50", "setting": "HCT116 cells", "value": 15.2, "unit": "µM"}, {"measurement": "IC50", "setting": "HepG2 cells", "value": 5.23, "unit": "µM"}, {"measurement": "IC50", "setting": "MDA-MB-231 cells", "value": 7.28, "unit": "µM"}, {"measurement": "IC50", "setting": "Miapaca2 cells", "value": 13.8, "unit": "µM"}, {"measurement": "IC50", "setting": "Huh7 cells", "value": 5.45, "unit": "µM"}, {"measurement": "IC50", "setting": "LO2 cells; Homo sapiens, L02, LO2 normal liver cells, MTT, 24 h", "value": 26.7, "unit": "µM"}, {"measurement": "toxicity in normal liver cells", "setting": "LO2 cells; LO2", "value": "low toxicity"}, {"measurement": "SMYD3 overexpression", "setting": "SMYD3 [2]", "value": "suppressed"}, {"measurement": "LD5", "setting": "C57BL/6 mice", "value": "> 2000", "unit": "mg/kg"}, {"measurement": "toxicity", "setting": "C57BL/6 mice; 2 g/kg one time, 2 weeks observation", "value": "No toxicity"}, {"measurement": "survival rate", "setting": "C57BL/6 mice; 2 g/kg, after 2 weeks", "value": 100, "unit": "%"}, {"measurement": "body weight changes during treatment", "setting": "HepG2 tumors; HepG2 tumor-bearing nude mice", "value": "no noticeable body weight changes"}, {"measurement": "growth suppression in HepG2 tumors", "setting": "HepG2 tumors; nude mice, 100 mg/kg intragastric, versus sorafenib 100 mg/kg", "value": "better than that of sorafenib"}, {"measurement": "SMYD3 expression in tumor tissues", "setting": "SMYD3 [3]", "value": "significantly diminished"}, {"measurement": "expression of H3K4me3 in tumor tissues", "setting": "H3K4me3", "value": "decrease"}, {"measurement": "water solubility", "setting": "Water solubility", "value": "poor water solubility"}]}]}
